Source: ChEMBL document CHEMBL6083249, “The journey of p38 MAP kinase inhibitors: From bench to bedside in treating inflammatory diseases” (Eur J Med Chem, 2024)

How the values were obtained:
[1] = Volume of distribution at steady state in Sprague-Dawley rat at 10 mg/kg, iv measured for 24 hrs by LC-MS/MS analysis; format: ADME, organism-based; conditions: in vivo, read-out: Vdss
THP-1 [2] = assay: Antiinflammatory activity against human THP-1 cells assessed as inhibition of LPS-induced TNF-alpha production; format: functional, cell-based
[3] = Half life in Sprague-Dawley rat at 10 mg/kg, po by LC-MS analysis; format: ADME, organism-based; conditions: in vivo
RAW264.7 = assay: Anti-inflammatory activity in LPS-induced mouse RAW264.7 cells assessed as inhibition of IL-6 production; format: functional, cell-based
[4] = Clearance in Sprague-Dawley rat at 10 mg/kg, iv by HPLC-MS analysis; format: ADME, organism-based; conditions: in vivo
THP-1 [5] = assay: Anti-inflammatory activity in human THP-1 cells assessed as inhibition of IL-1beta protein expression incubated for 24 hrs by Western blot analysis; format: functional, cell-based; conditions: THP-1, 24 h
[6] = Tmax in Wistar rat at 10 mg/kg, po by LC-MS/MS analysis; format: ADME, organism-based; conditions: in vivo
[7] = Oral bioavailability in Sprague-Dawley rat at 10 mg/kg by LC-MS analysis; format: ADME, organism-based; conditions: in vivo
[8] = Cmax in Wistar rat at 10 mg/kg, po by LC-MS/MS analysis; format: ADME, organism-based; conditions: in vivo
[9] = AUC in Sprague-Dawley rat at 10 mg/kg, po measured for 24 hrs by LC-MS/MS analysis; format: ADME, organism-based; conditions: in vivo
[10] = AUC (0 to infinity) in Sprague-Dawley rat at 50 mg/kg, po by LC-MS/MS analysis; format: ADME, organism-based; conditions: in vivo
[11] = target: 3',5'-cyclic-AMP phosphodiesterase 4C (Homo sapiens, UniProt Q08493); assay: Inhibition of PDE4C (unknown origin)
Chain of 3',5'-cyclic-AMP phosphodiesterase 4C (Q08493 whole entry): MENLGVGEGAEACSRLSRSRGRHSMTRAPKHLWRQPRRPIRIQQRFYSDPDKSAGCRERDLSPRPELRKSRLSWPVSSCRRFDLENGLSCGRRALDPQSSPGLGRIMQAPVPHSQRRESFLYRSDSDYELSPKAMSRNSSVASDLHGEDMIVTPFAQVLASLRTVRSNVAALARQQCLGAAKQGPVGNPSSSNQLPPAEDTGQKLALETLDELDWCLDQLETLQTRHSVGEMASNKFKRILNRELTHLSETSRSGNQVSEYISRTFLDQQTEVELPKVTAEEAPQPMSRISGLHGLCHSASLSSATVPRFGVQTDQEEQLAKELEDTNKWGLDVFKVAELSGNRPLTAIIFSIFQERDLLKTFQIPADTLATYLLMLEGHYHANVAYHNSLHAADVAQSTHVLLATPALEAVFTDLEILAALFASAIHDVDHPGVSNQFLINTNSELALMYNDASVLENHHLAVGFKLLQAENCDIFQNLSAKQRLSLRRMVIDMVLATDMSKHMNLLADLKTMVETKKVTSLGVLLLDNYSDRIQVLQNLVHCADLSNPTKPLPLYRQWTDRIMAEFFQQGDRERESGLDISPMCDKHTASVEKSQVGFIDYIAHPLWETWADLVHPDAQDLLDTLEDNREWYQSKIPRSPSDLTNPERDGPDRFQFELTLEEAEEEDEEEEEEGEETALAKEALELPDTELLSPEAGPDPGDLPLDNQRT

[12] = Plasma protein binding in cynomolgus monkey assessed as unbound fraction at 10 uM incubated for 6 hrs by LC-MS/MS analysis; format: ADME, cell-free, Macaca fascicularis
[13] = Tmax in Sprague-Dawley rat at 30 mg/kg, po by LC-MS analysis; format: ADME, organism-based; conditions: in vivo
[14] = AUC (0 to t) in Sprague-Dawley rat at 10 mg/kg, po by LC-MS analysis; format: ADME, organism-based; conditions: in vivo
[15] = Plasma protein binding in Sprague-Dawley rat assessed as unbound fraction at 1 uM incubated for 6 hrs by LC-MS/MS analysis; format: ADME, cell-free
[16] = Plasma protein binding in Sprague-Dawley rat assessed as unbound fraction at 10 uM incubated for 6 hrs by LC-MS/MS analysis; format: ADME, cell-free
[17] = Plasma protein binding in cynomolgus monkey assessed as unbound fraction at 1 uM incubated for 6 hrs by LC-MS/MS analysis; format: ADME, cell-free, Macaca fascicularis
[18] = Half life in Sprague-Dawley rat at 20 mg/kg, po by LC-MS/MS analysis; format: ADME, organism-based; conditions: in vivo
[19] = AUC (0 to t) in Beagle dog at 40 mg/kg, po by LC-MS/MS analysis; format: ADME, organism-based, Canis lupus familiaris; conditions: in vivo
[20] = Cmax in Sprague-Dawley rat at 20 mg/kg, po measured for 24 hrs by LC-MS/MS analysis; format: ADME, organism-based; conditions: in vivo
[21] = AUC (0 to t) in Sprague-Dawley rat at 30 mg/kg, po by LC-MS analysis; format: ADME, organism-based; conditions: in vivo
[22] = Plasma protein binding in human assessed as unbound fraction at 1 uM incubated for 6 hrs by LC-MS/MS analysis; format: ADME, cell-free
[23] = Plasma protein binding in human assessed as unbound fraction at 10 uM incubated for 6 hrs by LC-MS/MS analysis; format: ADME, cell-free
[24] = Tmax in Sprague-Dawley rat at 20 mg/kg, po by LC-MS analysis; format: ADME, organism-based; conditions: in vivo
[25] = Plasma protein binding in cynomolgus monkey assessed as unbound fraction at 30 uM incubated for 6 hrs by LC-MS/MS analysis; format: ADME, cell-free, Macaca fascicularis
[26] = Half life in Sprague-Dawley rat at 10 mg/kg, po by LC-MS/MS analysis; format: ADME, organism-based; conditions: in vivo
Homo sapiens [27] = species: Homo sapiens; assay: Inhibition of MKK6 (unknown origin) at 10 uM relative to control
[28] = target: Casein kinase I isoform alpha (Homo sapiens) (UniProt P48729); assay: Inhibition of CK1 alpha (unknown origin) at 10 uM relative ton control
Chain of Casein kinase I isoform alpha (Homo sapiens) (P48729 2-337 limits assumed): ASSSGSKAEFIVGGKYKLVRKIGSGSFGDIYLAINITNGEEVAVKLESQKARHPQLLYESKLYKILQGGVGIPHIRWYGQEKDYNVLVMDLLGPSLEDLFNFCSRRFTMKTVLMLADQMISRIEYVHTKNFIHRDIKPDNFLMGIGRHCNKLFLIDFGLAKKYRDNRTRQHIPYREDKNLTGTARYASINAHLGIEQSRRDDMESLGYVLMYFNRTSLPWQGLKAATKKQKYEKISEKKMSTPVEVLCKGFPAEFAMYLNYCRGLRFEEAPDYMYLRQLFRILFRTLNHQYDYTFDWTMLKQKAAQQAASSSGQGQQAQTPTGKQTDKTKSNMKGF

[29] = Plasma protein binding in Sprague-Dawley rat assessed as unbound fraction at 30 uM incubated for 6 hrs by LC-MS/MS analysis; format: ADME, cell-free
[30] = target: CDK7/Cyclin H/MNAT1 (Homo sapiens) (UniProt P51946+P50613+P51948); assay: Inhibition of CDK7/cyclinH/MAT1 (unknown origin) at 10 uM in presence of ATP relative to control; format: protein-complex assay
[31] = target: Cyclin-dependent kinase 18 (Homo sapiens) (UniProt Q07002); assay: Inhibition of CDK18 (unknown origin) at 10 uM relative to control
Chain of Cyclin-dependent kinase 18 (Homo sapiens) (Q07002 whole entry): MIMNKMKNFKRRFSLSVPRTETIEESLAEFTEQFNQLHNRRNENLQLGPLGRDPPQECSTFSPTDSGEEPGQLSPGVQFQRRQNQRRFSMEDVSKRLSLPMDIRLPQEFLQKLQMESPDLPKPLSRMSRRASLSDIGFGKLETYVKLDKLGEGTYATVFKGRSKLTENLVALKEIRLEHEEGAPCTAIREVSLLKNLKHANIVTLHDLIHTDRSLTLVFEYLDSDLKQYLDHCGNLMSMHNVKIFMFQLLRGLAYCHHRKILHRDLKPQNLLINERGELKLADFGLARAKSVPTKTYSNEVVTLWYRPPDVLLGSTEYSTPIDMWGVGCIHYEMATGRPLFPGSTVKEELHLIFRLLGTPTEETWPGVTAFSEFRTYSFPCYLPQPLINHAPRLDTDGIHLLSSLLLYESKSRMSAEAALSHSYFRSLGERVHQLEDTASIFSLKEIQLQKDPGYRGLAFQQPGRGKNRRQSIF

[32] = Plasma protein binding in human assessed as unbound fraction at 30 uM incubated for 6 hrs by LC-MS/MS analysis; format: ADME, cell-free
[33] = AUC (0 to infinity) in Sprague-Dawley rat at 20 mg/kg, po measured for 24 hrs by LC-MS/MS analysis; format: ADME, organism-based; conditions: in vivo
[34] = Half life in Sprague-Dawley rat at 50 mg/kg, po by LC-MS/MS analysis; format: ADME, organism-based; conditions: in vivo
[35] = Tmax in Sprague-Dawley rat at 10 mg/kg, po by LC-MS analysis; format: ADME, organism-based; conditions: in vivo
[36] = Cmax in Sprague-Dawley rat at 50 mg/kg, po by LC-MS analysis; format: ADME, organism-based; conditions: in vivo
[37] = target: 3',5'-cyclic-AMP phosphodiesterase 4B (Homo sapiens, UniProt Q07343); assay: Inhibition of PDE4B1 (unknown origin)
Chain of 3',5'-cyclic-AMP phosphodiesterase 4B (Q07343 whole entry): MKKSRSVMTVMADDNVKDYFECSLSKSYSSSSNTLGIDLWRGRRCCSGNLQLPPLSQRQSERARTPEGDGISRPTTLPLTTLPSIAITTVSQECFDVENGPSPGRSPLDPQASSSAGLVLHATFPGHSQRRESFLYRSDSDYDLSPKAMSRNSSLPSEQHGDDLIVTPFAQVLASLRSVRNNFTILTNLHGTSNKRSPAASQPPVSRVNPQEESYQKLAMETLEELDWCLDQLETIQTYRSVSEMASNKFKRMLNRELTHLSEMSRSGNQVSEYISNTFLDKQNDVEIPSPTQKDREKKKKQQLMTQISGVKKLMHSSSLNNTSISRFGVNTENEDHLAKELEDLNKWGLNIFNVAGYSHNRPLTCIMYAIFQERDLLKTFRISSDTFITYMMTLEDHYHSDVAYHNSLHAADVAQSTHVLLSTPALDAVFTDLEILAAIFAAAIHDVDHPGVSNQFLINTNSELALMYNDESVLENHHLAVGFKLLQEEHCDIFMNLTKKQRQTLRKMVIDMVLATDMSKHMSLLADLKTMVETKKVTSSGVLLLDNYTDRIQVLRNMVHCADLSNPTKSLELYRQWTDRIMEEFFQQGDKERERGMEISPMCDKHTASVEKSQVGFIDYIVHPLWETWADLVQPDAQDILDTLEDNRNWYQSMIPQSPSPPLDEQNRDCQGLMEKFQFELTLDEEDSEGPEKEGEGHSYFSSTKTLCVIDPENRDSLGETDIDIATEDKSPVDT

[38] = Half life in Sprague-Dawley rat at 30 mg/kg, po by LC-MS/MS analysis; format: ADME, organism-based; conditions: in vivo
[39] = target: Mitogen-activated protein kinase 14 (Homo sapiens) (UniProt Q16539); assay: Inhibition of p38alpha (unknown origin) at 10 uM in presence of ATP relative to control
Chain of Mitogen-activated protein kinase 14 (Homo sapiens) (Q16539 whole entry): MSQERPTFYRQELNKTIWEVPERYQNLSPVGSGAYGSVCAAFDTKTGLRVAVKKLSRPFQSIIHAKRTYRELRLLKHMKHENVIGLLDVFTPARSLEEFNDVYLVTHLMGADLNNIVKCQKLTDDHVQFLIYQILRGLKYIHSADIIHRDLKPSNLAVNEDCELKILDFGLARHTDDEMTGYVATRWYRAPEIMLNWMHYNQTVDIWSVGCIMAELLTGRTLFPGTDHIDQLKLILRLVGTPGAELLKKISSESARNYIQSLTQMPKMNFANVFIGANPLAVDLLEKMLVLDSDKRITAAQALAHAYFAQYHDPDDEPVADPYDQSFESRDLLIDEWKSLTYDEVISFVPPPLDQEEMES

[40] = AUC (0 to infinity) in Sprague-Dawley rat at 20 mg/kg, po by LC-MS/MS analysis; format: ADME, organism-based; conditions: in vivo
[41] = AUC (0 to infinity) in Sprague-Dawley rat at 30 mg/kg, po by LC-MS/MS analysis; format: ADME, organism-based; conditions: in vivo
Homo sapiens [42] = species: Homo sapiens; assay: Inhibition of P70S6K (unknown origin) in presence of 10 uM ATP by Z'-LYTE biochemical assay relative to control
[43] = AUC (0 to t) in Sprague-Dawley rat at 20 mg/kg, po by LC-MS analysis; format: ADME, organism-based; conditions: in vivo
[44] = AUC (0 to infinity) in Sprague-Dawley rat at 10 mg/kg, po by LC-MS/MS analysis; format: ADME, organism-based; conditions: in vivo
[45] = Cmax in Sprague-Dawley rat at 10 mg/kg, po by LC-MS analysis; format: ADME, organism-based; conditions: in vivo
[46] = Tmax in Sprague-Dawley rat at 50 mg/kg, po by LC-MS analysis; format: ADME, organism-based; conditions: in vivo
[47] = AUC (0 to t) in Sprague-Dawley rat at 50 mg/kg, po by LC-MS analysis; format: ADME, organism-based; conditions: in vivo
[48] = target: cGMP-specific 3',5'-cyclic phosphodiesterase (Homo sapiens) (UniProt O76074); assay: Inhibition of human PDE5 at 10 uM relative to control
[49] = target: cGMP-inhibited 3',5'-cyclic phosphodiesterase 3A (Homo sapiens) (UniProt Q14432); assay: Inhibition of PDE3A (unknown origin) at 10 uM relative to control
Chain of cGMP-inhibited 3',5'-cyclic phosphodiesterase 3A (Homo sapiens) (Q14432 whole entry): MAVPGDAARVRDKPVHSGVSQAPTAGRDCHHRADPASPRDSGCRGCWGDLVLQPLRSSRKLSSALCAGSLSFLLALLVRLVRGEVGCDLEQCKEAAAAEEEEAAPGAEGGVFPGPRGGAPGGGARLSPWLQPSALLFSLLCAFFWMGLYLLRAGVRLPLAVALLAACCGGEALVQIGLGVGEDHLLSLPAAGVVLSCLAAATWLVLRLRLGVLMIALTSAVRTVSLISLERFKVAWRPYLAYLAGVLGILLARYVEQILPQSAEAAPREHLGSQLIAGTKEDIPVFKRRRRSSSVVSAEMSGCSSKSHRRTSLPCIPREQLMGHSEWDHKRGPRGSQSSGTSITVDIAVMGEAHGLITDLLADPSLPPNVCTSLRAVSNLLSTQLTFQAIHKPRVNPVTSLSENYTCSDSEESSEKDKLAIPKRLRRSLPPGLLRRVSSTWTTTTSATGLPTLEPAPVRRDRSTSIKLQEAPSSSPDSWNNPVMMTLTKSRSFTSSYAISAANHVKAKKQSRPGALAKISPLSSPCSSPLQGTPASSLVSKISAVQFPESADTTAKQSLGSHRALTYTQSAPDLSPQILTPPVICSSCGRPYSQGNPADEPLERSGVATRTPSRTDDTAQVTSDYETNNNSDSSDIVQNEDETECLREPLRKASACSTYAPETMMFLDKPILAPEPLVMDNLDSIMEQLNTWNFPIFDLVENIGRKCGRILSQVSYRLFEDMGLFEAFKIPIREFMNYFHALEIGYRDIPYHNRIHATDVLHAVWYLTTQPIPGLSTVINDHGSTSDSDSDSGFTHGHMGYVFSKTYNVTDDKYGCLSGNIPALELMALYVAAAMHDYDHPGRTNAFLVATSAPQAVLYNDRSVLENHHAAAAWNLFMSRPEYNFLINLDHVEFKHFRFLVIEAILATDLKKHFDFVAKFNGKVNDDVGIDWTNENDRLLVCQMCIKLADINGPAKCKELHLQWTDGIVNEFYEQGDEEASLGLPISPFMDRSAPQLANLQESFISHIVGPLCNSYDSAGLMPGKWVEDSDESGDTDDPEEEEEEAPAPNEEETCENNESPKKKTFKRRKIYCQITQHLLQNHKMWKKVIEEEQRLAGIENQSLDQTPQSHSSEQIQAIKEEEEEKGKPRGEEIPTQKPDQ

[50] = target: Mitogen-activated protein kinase 3 (Homo sapiens, UniProt P27361); assay: Inhibition of ERK1 (unknown origin)
Chain of Mitogen-activated protein kinase 3 (P27361 whole entry): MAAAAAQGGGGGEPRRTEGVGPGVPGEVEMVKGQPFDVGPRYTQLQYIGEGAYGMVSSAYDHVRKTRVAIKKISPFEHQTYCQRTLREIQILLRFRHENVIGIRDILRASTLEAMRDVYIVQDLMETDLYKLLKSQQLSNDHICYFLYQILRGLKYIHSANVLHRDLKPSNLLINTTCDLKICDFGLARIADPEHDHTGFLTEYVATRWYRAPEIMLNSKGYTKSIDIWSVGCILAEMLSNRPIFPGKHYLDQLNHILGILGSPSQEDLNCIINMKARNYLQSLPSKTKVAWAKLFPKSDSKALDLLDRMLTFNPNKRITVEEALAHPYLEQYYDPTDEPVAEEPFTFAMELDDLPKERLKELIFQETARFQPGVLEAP

[51] = target: Mitogen-activated protein kinase kinase kinase 7 (Homo sapiens, UniProt O43318); assay: Inhibition of TAK1 (unknown origin)
Chain of Mitogen-activated protein kinase kinase kinase 7 (O43318 whole entry): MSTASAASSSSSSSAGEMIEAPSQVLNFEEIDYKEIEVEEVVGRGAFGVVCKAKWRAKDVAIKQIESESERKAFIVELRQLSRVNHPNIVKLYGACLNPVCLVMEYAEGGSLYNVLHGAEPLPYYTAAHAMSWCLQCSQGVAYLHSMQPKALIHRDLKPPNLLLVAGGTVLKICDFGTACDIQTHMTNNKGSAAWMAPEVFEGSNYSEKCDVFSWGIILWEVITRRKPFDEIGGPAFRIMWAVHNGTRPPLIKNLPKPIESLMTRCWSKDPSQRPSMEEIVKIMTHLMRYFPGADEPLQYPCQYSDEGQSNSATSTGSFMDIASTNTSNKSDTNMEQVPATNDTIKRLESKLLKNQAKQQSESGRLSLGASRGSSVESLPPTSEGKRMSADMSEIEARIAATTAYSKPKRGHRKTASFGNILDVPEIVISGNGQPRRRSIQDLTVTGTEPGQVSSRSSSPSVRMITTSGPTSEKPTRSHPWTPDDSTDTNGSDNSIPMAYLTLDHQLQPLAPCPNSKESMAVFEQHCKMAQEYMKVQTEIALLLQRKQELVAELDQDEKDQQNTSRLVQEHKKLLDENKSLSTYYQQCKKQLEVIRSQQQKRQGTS

[52] = Oral bioavailability in rat at 2 mg/kg by LC-MS/MS analysis; format: ADME, organism-based; conditions: in vivo
[53] = Oral bioavailability in ICR mouse at […] by LC-MS/MS analysis; format: ADME, organism-based; conditions: in vivo, dose 0.25 mg/kg
[54] = AUC in rat at 30 mg/kg, po; format: ADME, organism-based; conditions: in vivo

## Cn1c(=O)c(Oc2ccc(F)cc2F)cc2cnc(NC(CCO)CCO)nc21 [PAMAPIMOD]
[1]
  Vd: 3.56 L/kg
THP-1 [2]
  IC50: 300 nM
[3]
  half-life: 4.04 h
RAW264.7
  EC50: 50 nM
[4]
  clearance: 21 mL/min/kg
THP-1 [5]
  IC50: 100 nM
[6]
  Tmax: 0.5 h
[7]
  bioavailability: 80.1%
[8]
  Cmax: 1340 ng/mL
[9]
  AUC: 3.13 µg/h/mL

## CC(=O)Nc1cc(-c2c(-c3ccc(F)cc3)nc([S+](C)[O-])n2C)ccn1 (configuration not stated)
[10]
  AUC: 3.58 µM·h
[11]
  IC50: 6400 nM
[12]
  fraction unbound at 6 h, 10 µM: 0.611
[13]
  Tmax: 2.3 h
[14]
  AUCt: 0.95 µM·h
[15]
  fraction unbound at 6 h, 1 µM: 0.863
[16]
  fraction unbound at 6 h, 10 µM: 0.631
[17]
  fraction unbound at 6 h, 1 µM: 0.667
[18]
  half-life: 3.3 h
[19]
  AUCt: 93.4 µM·h
[20]
  Cmax: 314 nM
[21]
  AUCt: 0.42 µM·h
[22]
  fraction unbound at 6 h, 1 µM: 0.9
[23]
  fraction unbound at 6 h, 10 µM: 0.806
[24]
  Tmax: 2.9 h
[25]
  fraction unbound at 6 h, 30 µM: 0.583
[26]
  half-life: 2.7 h
Homo sapiens [27]
  inhibition: 62%
[28]
  inhibition: 97%
[29]
  fraction unbound at 6 h, 30 µM: 0.754
[30]
  inhibition: 54%
[31]
  inhibition: 94%
[32]
  fraction unbound at 6 h, 30 µM: 0.781
[33]
  AUC: 2.24 µM·h
[34]
  half-life: 3.2 h
[35]
  Tmax: 2.2 h
[36]
  Cmax: 590 nM
[37]
  IC50: 1900 nM
[38]
  half-life: 3.4 h
[39]
  inhibition: 35%
[40]
  AUC: 2.24 µM·h
[41]
  AUC: 3.05 µM·h
Homo sapiens [42]
  inhibition: 32%
[43]
  AUCt: 0.31 µM·h
[44]
  AUC: 1.04 µM·h
[45]
  Cmax: 200 nM
[46]
  Tmax: 1.5 h
[47]
  AUCt: 3.4 µM·h

## Cn1c([S+](C)[O-])nc(-c2ccc(F)cc2)c1-c1ccnc(N)c1 (configuration not stated)
[11]
  IC50: > 10000 nM
[48]
  inhibition: 30%
[49]
  inhibition: 30%
[37]
  IC50: 3500 nM

## CCc1nc(-c2cccc(C)c2)c(-c2ccnc(NC(=O)c3ccccc3)c2)s1 [TAK-715]
[50]
  IC50: > 10000 nM
[51]
  IC50: > 10000 nM
[52]
  bioavailability: 21.1%

## Cc1c(F)cc(C(=O)NC2CC2)cc1-c1ccc(C(=O)NCC(C)(C)C)cn1 [LOSMAPIMOD]
[53]
  bioavailability: 51%
[54]
  AUC: 220 ng·h/mL
